Test results as given in PMC12395807, “Chemoreceptor family in plant-associated bacteria responds preferentially to the plant signal molecule glycerol 3-phosphate” (Genome Biology, 2025).

Columns and labels:
P. atrosepticum SCRI1043 = assay: Quantitative capillary chemotaxis assay, wild type; assay type: cell-based, Pectobacterium atrosepticum; conditions: wild type SCRI1043, 1 mM ligand, 30 min
Method: (§1) Overnight cultures of P. atrosepticum SCRI1043 were grown at 30 °C in minimal medium. At an OD660 of 0.4–0.45, the cultures were washed twice with chemotaxis buffer (50 mM K2HPO4/KH2PO4, 20 μM EDTA, 0.05% (v/v) glycerol, pH 7.0) and diluted to an OD660 of 0.1 in the same buffer. Subsequently, 230 μL of the resulting bacterial suspension was placed into the wells of 96-well plates. One-microliter capillary tubes (P1424, Microcaps; Drummond Scientific) were heat-sealed at one end and filled with either chemotaxis buffer (negative control) or chemotaxis buffer containing PacP ligands at a concentration of 1 mM. The capillaries were immersed in the bacterial suspensions at their open ends. After 30 min at room temperature, the capillaries were removed from the bacterial suspensions, rinsed with sterile water, and the contents were expelled into 1 mL of 40 mM K2HPO4, 15 mM KH2PO4. Serial dilutions were plated onto minimal medium supplemented with 15 mM glucose as the carbon source. The number of colony-forming units was determined after 36 h of incubation at 30 °C. In all the cases, the data were corrected with the number of cells that swam into the buffer-containing capillaries.

Bacillus subtilis = test system: Bacillus subtilis; design: method as in PMID 119030, PMID 500565; conditions: cited from earlier work
[1] = molecular target: LBD of chemoreceptor R6 (WP_174062248.1); assay: ITC binding to R6-LBD; design: species or system Agrobacterium larrymoorei; conditions: 20 °C, Nb = no binding
Method: (§2) Plasmids for the overexpression of the different proteins were transformed into E. coli BL21(DE3). The resulting strains were grown under continuous stirring (200 rpm) at 30 °C in 2-L Erlenmeyer flasks containing 500 mL of LB medium supplemented with 50 μg/mL kanamycin. At an OD660 of 0.5, protein expression was induced by the addition of 0.1 mM isopropyl β-D-1-thiogalactopyranoside. Growth was continued at 16 °C overnight prior to cell harvesting by centrifugation at 10,000 × g for 20 min. Cell pellets were resuspended in buffer A (Additional file 2: Table S4) and subsequently broken by French press treatment at 62.5 lb/in^2. After centrifugation at 20,000 × g for 30 min, the supernatants were loaded onto 5-mL HisTrap HP columns (Amersham Biosciences) equilibrated with buffer A, and the proteins were eluted with a linear gradient of buffer B (Additional file 2: Table S4). All proteins contain a hexa-histidine tag at the N-terminal extension (Additional file 2: Table S3) and were purified at 4 °C. The purified proteins were dialyzed overnight into the corresponding analysis buffers (Additional file 2: Table S4) for immediate analysis.
(§3) All experiments were conducted on a VP microcalorimeter (Microcal, MA) at 15 °C for PacP-LBD and at 20 °C for the remaining proteins. Proteins were dialyzed into the analysis buffers specified in Additional file 2: Table S4, placed into the sample cell and titrated with aliquots of ligand solutions (1 to 10 mM) freshly prepared in dialysis buffer. The mean enthalpies measured from the injection of the ligands into the analysis buffer were subtracted from the raw titration data prior to data analysis with the MicroCal version of ORIGIN. The data were fitted with the “One binding site model” of ORIGIN.

[2] = test system: P. atrosepticum SCRI1043 pacP mutant (MpacP); assay: Quantitative capillary chemotaxis assay, pacP mutant; assay type: cell-based, Pectobacterium atrosepticum; conditions: 1 mM ligand
From the text: A mutant defective in ECA_RS12390 was constructed by homologous recombination using a derivative plasmid of the suicide vector pKNG101. Briefly, a 0.5-kb fragment corresponding to the region encoding the LBD of ECA_RS12390 was amplified by the primers specified in Additional file 2: Table S2 and cloned into pGEM®-T. The resulting plasmid pGEM::ECA_RS12390 was digested with XmaI, and the 0.5-kb insert was cloned into the same site at pKNG101 to generate pKNG101::ECA_RS12390. This plasmid was subsequently transformed into P. atrosepticum SRCI1043 via biparental conjugation using E. coli β2163. All the plasmids were verified by PCR and sequencing. The pETb(+) derivatives encoding the LBD of the different receptors analyzed in this study (Table 1) were purchased from GeneScript. Plasmid pBBR-ECA_RS12390 was constructed by amplifying the pacP gene using the primers detailed in Additional file 2: Table S2 and cloning of the PCR product into the NdeI/BamHI sites of pBBR1MCS2_START. The sequences of the proteins analyzed in this study are provided in Additional file 2: Table S3. The ECA_RS12390 nucleotide sequence is available in the published genome of P. atrosepticum SCRI1043 [60].
as §1

[3] = test system: Bdellovibrio bacteriovorus; design: method as in PMID 119030, PMID 500565; conditions: cited from earlier work
[4] = molecular target: LBD of chemoreceptor R5 (WP_028444678.1); assay: ITC binding to R5-LBD; design: species or system Chitinimonas koreensis; conditions: 20 °C, Nb = no binding
Method: as §2, §3

[5] = molecular target: LBD of chemoreceptor R9 (WP_189529961.1) (Paludibacterium paludis, UniProt A0A918NWY2); assay: ITC binding to R9-LBD; conditions: 20 °C, Nb = no binding
Method: as §2, §3

[6] = molecular target: ligand binding domain of the chemoreceptor ECA_RS12390 (PacP-LBD, R1, WP_011094075.1) (Pectobacterium atrosepticum, UniProt Q6D464); assay: ITC binding to PacP-LBD; conditions: 15 °C, Nb = no binding
Method: as §2, §3

[7] = test system: P. atrosepticum SCRI1043 ΔcheA; assay: Quantitative capillary chemotaxis assay, cheA mutant; assay type: cell-based, Pectobacterium atrosepticum; conditions: 1 mM ligand
Method: as §1
Fig. S2) Quantitative capillary chemotaxis assays of different P. atrosepticum SCRI1043 strains to 1 mM Glycerol 3-phosphate (A) and 3-phosphoglycerate (B). […]

[8] = molecular target: LBD of chemoreceptor R3 (WP_006464688.1) (Herbaspirillum frisingense, UniProt A0ABU1PC34); assay: ITC binding to R3-LBD; conditions: 20 °C, Nb = no binding
Method: as §2, §3

Chain of LBD of chemoreceptor R3 (WP_006464688.1) (A0ABU1PC34 entry or part of it): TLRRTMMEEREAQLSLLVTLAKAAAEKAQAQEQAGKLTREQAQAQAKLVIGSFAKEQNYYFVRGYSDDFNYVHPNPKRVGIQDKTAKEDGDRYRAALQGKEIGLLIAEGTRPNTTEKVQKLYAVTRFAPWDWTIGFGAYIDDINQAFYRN
Chain of ligand binding domain of the chemoreceptor ECA_RS12390 (PacP-LBD, R1, WP_011094075.1) (Q6D464 entry or part of it): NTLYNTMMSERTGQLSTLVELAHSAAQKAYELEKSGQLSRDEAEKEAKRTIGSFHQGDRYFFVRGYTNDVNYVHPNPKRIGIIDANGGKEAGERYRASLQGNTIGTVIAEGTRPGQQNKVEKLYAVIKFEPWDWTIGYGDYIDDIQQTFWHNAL
Chain of LBD of chemoreceptor R9 (WP_189529961.1) (A0A918NWY2 entry or part of it): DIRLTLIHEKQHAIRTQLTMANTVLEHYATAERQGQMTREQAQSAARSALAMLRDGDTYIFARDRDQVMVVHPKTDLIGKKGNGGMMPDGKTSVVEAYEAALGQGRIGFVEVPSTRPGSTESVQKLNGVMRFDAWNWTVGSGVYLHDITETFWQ

Row | Compound | chemotaxis (capillary assay) (P. atrosepticum SCRI1043) | chemotaxis (Bacillus subtilis) | KD [1] | chemotaxis (capillary assay) [2] | chemotaxis [3] | KD [4] | KD [5] | Kd [6] | chemotaxis (capillary assay) [7] | KD [8] | chemotaxis (capillary assay) (P. atrosepticum SCRI1043; listed as Glycerol 3-phosphate) | Kd [8]
1 | O=C(O)[C@@H](O)COP(=O)(O)O [3-phosphoglycerate] | significantly greater | weak chemotaxis | Nb | Only glycerol 2-phosphate served as an attractant for the mutant | weak chemotaxis | Nb | Nb | 88 ± 5 µM | failed to respond | Nb | – | –
2 | O=P(O)(O)OCC(O)CO (stereo not shown) [glycerol 3-phosphate] | significantly greater | weak chemotaxis | Nb | Only glycerol 2-phosphate served as an attractant for the mutant | weak chemotaxis | Nb | Nb | 3 ± 0.2 µM | failed to respond | bound | strongest chemotaxis | 33 ± 1 µM
